Results as given in patent publication US20230000813A1, “COMPOUND FOR THE TREATMENT OF BOVINE OR SWINE RESPIRATORY DISEASE” (Intervet Inc., priority 2016, published 2023).
Values joined by “and” are separate entries in the source; they are usually repeats but may differ in a detail not shown here. Equal values may be shown once. Marks after values point to notes of the source that are not given here.

How the values were obtained:
[1] = system: M. haemolytica M7/2, serotype A:1, ID 6357; experiment: Mannheimia haemolytica cattle lung infection model, efficacy (Example 8); format: in vivo, Holstein black pied cattle calves; parameters: key to General behavior, score: 0 = normal; 1 = slightly depressive; 2 = moderately depressive; 3 = highly depressive; 4 = recumbency; key to Re-isolation of bacteria, Left Bronchial swab / Re-isolation of bacteria, Right Bronchial swab: − no bacterial growth; + low; ++ medium; +++ high amount of bacterial growth; conditions: for Food consumption, cumulated for all animals in the group: 3 calves; for Lung score (including grade and percent Lung consolidation): grade of consolidation 0 to 3
Experimental: 15 male Holstein black pied cattle calves of ca. 4 months age were randomly assigned to the study groups ensuring an equal distribution of body weight. The animal weight was approximately 98-133.5 kg on D-1.
Calves were infected on Day 0 via intratracheal instillation of approximately 300 mL of a M. haemolytica PBS suspension containing approximately 3×10^9 CFU M. haemolytica in late log phase.
Three animals each were treated one hour after infection by subcutaneous (SC) administration of Compound 329 in an aqueous 30% (w/v) Captisol® solution for injection at a dose of 10 mg/kg BW.
The respective dose volume was injected on the sides of the thoracic wall. Injection volumes exceeding 10 mL were divided into one portion of 10 mL administered to the left side and the remaining rest administered at different injection sites on the other side. Animals in one control group were treated with a commercially available Enrofloxacin solution (Baytril ® 10%, Bayer Animal Health) at the recommended dose of 10 mg/kg BW. The second control group was treated with the galenic diluent (30% (w/v) Captisol®, dissolved in water) as placebo.
Food consumption was measured. Single individual blood samples were collected from the 12 animals at the following time points: D-1 (predose), 30 minutes, 2, 4, 6, 24 h and at D2 (ca. 45 h) after administration. After the day 2 blood sampling, the infected cattle were slaughtered. The lungs were weighted. Lung states and lung scores were observed morphologically.
At necropsy from animals treated with test items or the positive control, samples of epithelial lining fluid (ELF), lung tissue, and additionally tissue of liver and kidney were collected. From each lung two bacteriological swaps were taken from the left and right bronchus.
From each lung two tissue samples were collected by clipping from at least two locations, one from morphologically unchanged tissue, one from the edge of pathomorphologically changed areas.

[2] = Plasma and tissue concentrations in infected calves (Example 10); format: in vivo, cattle calves; conditions: individual animals and mean; for Concentration, Plasma 0 h: predose
[3] = system: naturally occurring bovine respiratory disease (BRD); experiment: Treatment of naturally occurring bovine respiratory disease under U.S. feedlot conditions (Example 11); format: in vivo, weaned beef cattle calves
From the text: The effectiveness and safety of compound 329 for the treatment of naturally occurring bovine respiratory disease (BRD) under typical U.S. feedlot conditions when administered subcutaneously was investigated. The therapeutic efficacy of the two antibacterials was compared to a negative control group (sterile saline) and a positive control group (Nuflor® Injectable Solution).
Weaned beef cattle calves (crossbreds of Angus, Charolais and Limousin) were enrolled in the study and were allocated to groups of 20 animals per treatment group. Calves were enrolled in the study with body weights that ranged from 123 to 262 kg.
The bovine respiratory disease observed in this 10-day natural infection study was moderate to severe across the treatment groups and typical of that observed in commercial feed yards in the U.S.
Animals were dosed subcutaneously once on the day of enrollment (Day 0) with compound 329 or the control groups. Compound 329 was dosed at 10 mg/kg body weight. Nuflor® was dosed at 40 mg/kg body weight. Sterile saline was dosed at 2 mL/15 kg body weight.

[4] = infected calves, SC 10 mg/kg, in words
[5] = section on day 2, infected calves, SC 10 mg/kg, individual animals and mean, 10 mg/kg
[6] = section on day 2, infected calves, SC 10 mg/kg, individual animals and mean, 10 mg/kg, mean
[7] = section on day 2, infected calves, SC single 10 mg/kg, individual animals
[8] = SC single 5 mg/kg (35% Cavitron), listed as C. 239, 5 mg/kg
[9] = SC single 10 mg/kg (C 231 in 10% Poloxamer 188; C 329 in 35% Cavitron), 10 mg/kg
[10] = D 0 to D 10, 20 calves per group, C. 329 10 mg/kg, Nuflor 40 mg/kg SC once
[11] = natural BRD, 20 calves per group, SC once on Day 0: C. 329 10 mg/kg, Nuflor 40 mg/kg
[12] = natural BRD, calves removed before D 10 included, C. 329 10 mg/kg, Nuflor 40 mg/kg SC once

Compound: CC(C)(N)C(NC(=O)c1ccc(C#Cc2ccc(CNC3CC3)cc2)cc1)C(=O)NO (stereo not shown) [C. 329]
- General behavior, score ([1]; D 0 am (before infection), calves, SC 10 mg/kg, individual animals and mean, 10 mg/kg): 0
- General behavior, score ([1]; D 0 am (before infection), calves, SC 10 mg/kg, individual animals and mean, 10 mg/kg, mean): 0.0 score
- Food consumption, cumulated for all animals in the group ([1]; D 0 am, after infection and treatment, SC 10 mg/kg): 470 g
- Food consumption, cumulated for all animals in the group ([1]; D 0 pm, SC 10 mg/kg): 1800** g
- General behavior, score ([1]; D 0 pm, calves infected with M. haemolytica, SC 10 mg/kg 1 h after infection, individual animals and mean, 10 mg/kg): 2 and 1 (2×)
- General behavior, score ([1]; D 0 pm, calves infected with M. haemolytica, SC 10 mg/kg 1 h after infection, individual animals and mean, 10 mg/kg, mean): 1.3 score
- General behavior, score ([1]; D 1 am, calves infected with M. haemolytica, SC 10 mg/kg 1 h after infection, individual animals and mean, 10 mg/kg): 1 and 0 (2×)
- General behavior, score ([1]; D 1 am, calves infected with M. haemolytica, SC 10 mg/kg 1 h after infection, individual animals and mean, 10 mg/kg, mean): 0.3 score
- General behavior, score ([1]; D 1 pm, calves infected with M. haemolytica, SC 10 mg/kg 1 h after infection, individual animals and mean, 10 mg/kg): 1 (2×) and 0
- General behavior, score ([1]; D 1 pm, calves infected with M. haemolytica, SC 10 mg/kg 1 h after infection, individual animals and mean, 10 mg/kg, mean): 0.7 score
- General behavior, score ([1]; D 2 am, calves infected with M. haemolytica, SC 10 mg/kg 1 h after infection, individual animals and mean, 10 mg/kg): 0
- General behavior, score ([1]; D 2 am, calves infected with M. haemolytica, SC 10 mg/kg 1 h after infection, individual animals and mean, 10 mg/kg, mean): 0.0 score
- Food consumption, cumulated for all animals in the group ([1]; D +1 am, SC 10 mg/kg): 4800 g
- Food consumption, cumulated for all animals in the group ([1]; D +1 pm, SC 10 mg/kg): 4800 g
- Food consumption, cumulated for all animals in the group ([1]; D −1 (before infection), SC 10 mg/kg): 4800 g
- general behavior and food uptake [1, 4]: comparable to the positive control
- mean bacterial re-isolation [1, 4]: Very low
- Lung score (including grade and percent Lung consolidation) [1, 5]: 32.4 and 29.5 and 37.7
- Lung score (including grade and percent Lung consolidation) [1, 6]: 33.2
- Lung consolidations [1, 5]: 20.9% and 14.8% and 21.6%
- Lung weight [1, 5]: 1717 g and 1549 g and 1583 g
- Lung/body weight ratio [1, 5]: ~1.3% and 1.36% and 1.30% and 1.41%
- Lung consolidations [1, 6]: 19.1%
- Lung weight [1, 6]: 1616 g
- Re-isolation of bacteria, Left Bronchial swab [1, 7]: −
- Re-isolation of bacteria, Right Bronchial swab [1, 7]: −
- efficacy in the lung model infection with M. haemolytica in calves ([1]; single SC treatment with 10 mg/kg BW, conclusion in words): good efficacy
- Concentration, Plasma 0.5 h [2, 8]: 1140 ng/mL and 830 ng/mL and 945 ng/mL
- Concentration, Plasma 2 h [2, 8]: 327 ng/mL and 326 ng/mL and 221 ng/mL
- Concentration, Plasma 4 h [2, 8]: 146 ng/mL and 210 ng/mL and 130 ng/mL
- Concentration, Plasma 6 h [2, 8]: 110 ng/mL and 156 ng/mL and 78.7 ng/mL
- Concentration, Plasma 24 h [2, 8]: 32.2 ng/mL and 35.1 ng/mL and 22.8 ng/mL
- Concentration, Plasma 48 h [2, 8]: 16.1 ng/mL and 18.2 ng/mL and 12.8 ng/mL
- Concentration, Tissue (48 h) ELF [2, 8]: 91.8 ng/mL and 214 ng/mL and 324 ng/mL
- Concentration, Tissue (48 h) Kidney [2, 8]: 8890 ng/mL and 3990 ng/mL and 4940 ng/mL
- Concentration, Tissue (48 h) Liver [2, 8]: 2060 ng/mL and 1550 ng/mL and 1740 ng/mL
- Concentration, Tissue (48 h) Lung [2, 8]: 1560 ng/mL and 1320 ng/mL and 1360 ng/mL
- Concentration, Tissue (48 h) Muscle [2, 8]: 53.3 ng/mL and 45.7 ng/mL and 54.4 ng/mL
- Concentration, Plasma 0.5 h [2, 9]: 1160 ng/mL and 1610 ng/mL and 1400 ng/mL
- Concentration, Plasma 2 h [2, 9]: 476 ng/mL and 439 ng/mL and 550 ng/mL
- Concentration, Plasma 4 h [2, 9]: 310 ng/mL and 267 ng/mL and 282 ng/mL
- Concentration, Plasma 6 h [2, 9]: 210 ng/mL and 172 ng/mL and 174 ng/mL
- Concentration, Plasma 24 h [2, 9]: 69.1 ng/mL and 42.9 ng/mL and 57.5 ng/mL
- Concentration, Plasma 48 h [2, 9]: 49.3 ng/mL and 38.5 ng/mL and 32.4 ng/mL
- Concentration, Tissue (48 h) ELF [2, 9]: 1090 ng/mL and 372 ng/mL and 250 ng/mL
- Concentration, Tissue (48 h) Kidney [2, 9]: 6570 ng/mL and 20800 ng/mL and 4620 ng/mL
- Concentration, Tissue (48 h) Liver [2, 9]: 3930 ng/mL and 3650 ng/mL and 2730 ng/mL
- Concentration, Tissue (48 h) Lung [2, 9]: 2780 ng/mL and 3370 ng/mL and 2790 ng/mL
- Concentration, Tissue (48 h) Muscle [2, 9]: 75.3 ng/mL and 68.5 ng/mL and 85.9 ng/mL
- Concentration, Plasma 0 h ([2]; SC single 5 mg/kg (35% Cavitron)): BLQ
- Concentration, Plasma 0 h ([2]; SC single 10 mg/kg (C 231 in 10% Poloxamer 188; C 329 in 35% Cavitron)): BLQ
- Efficacy in a field like setting, naturally occurring BRD ([3]; 10 mg/kg SC once, compared to saline and Nuflor, conclusion in words): demonstrated
- Mortalities during the study ([3]; 10-day natural BRD study, C. 329 10 mg/kg, Nuflor 40 mg/kg SC once): 5%
- Removals from the study, Percentage [3, 10]: 5%
- Removals from the study, Total [3, 10]: 1
- Removals from the study, D 0 [3, 11]: 0
- Removals from the study, D 1 [3, 11]: 0
- Removals from the study, D 2 [3, 11]: 0
- Removals from the study, D 3 [3, 11]: 0
- Removals from the study, D 4 [3, 11]: 0
- Removals from the study, D 5 [3, 11]: 0
- Removals from the study, D 6 [3, 11]: 0
- Removals from the study, D 7 [3, 11]: 0
- Removals from the study, D 8 [3, 11]: 0
- Removals from the study, D 9 [3, 11]: 1
- Removals from the study, D 10 [3, 11]: 0
- Average Body weight on D 0 ([3]; natural BRD, day of enrollment, C. 329 10 mg/kg, Nuflor 40 mg/kg SC once): 401.2 lb
- Average Body weight on last day in study [3, 12]: 406.3 lb
- Average daily body weight gain [3, 12]: 0.5 lb
- daily body weight gains over the study period ([3]; natural BRD, in words): positive daily body weight gains
